Assay results taken from US5656736A, “Compound UCH9” (Kyowa Hakko Kogyo Co., Ltd., priority 1993, dated 1997).
Converted amounts (≈) assume the structure as drawn. Structures can show the parent of a compound that is named as a salt.

Assays:
[1] = tested on: Bacillus subtilis No. 10707; assay: Antibacterial activity, agar dilution method (MIC); format: cell-based; details: pH 7
Method: (§1) The minimum inhibitory concentration (MIC) of the compound obtained in Example 1 against the growth of various bacteria is shown in Table 1.
(§2) The antibacterial activity was determined by the agar dilution method using a medium (pH 7) which comprises 3 g/l Bacto-tryptone (Difco Laboratories),3 g/l meat extract, 1 g/l yeast extract, 1 g/l glucose and 16 g/l agar.

[2] = tested on: Enterococcus faecium ATCC 10541; assay: Antibacterial activity, agar dilution method (MIC); format: cell-based; details: ATCC10541, pH 7
Method: as §1, §2

[3] = tested on: Staphylococcus aureus ATCC 6538P; assay: Antibacterial activity, agar dilution method (MIC); format: cell-based; details: ATCC6538P, pH 7
Method: as §1, §2

[4] = tested on: HeLa S3 cells (ATCC HTB22); assay: Growth inhibition against HeLa S3 cells (Neutral Red staining); format: cell-based; details: Homo sapiens, 72 hours, 37° C.
Method: HeLa S3 cells (ATCC HTB22) were suspended in a medium comprising 10% fetal calf serum, 2 mM glutamine and MEM medium (Nippon Pharmaceutical Co., Ltd.) (hereinafter referred to as medium A) to a concentration of 3×10^4 cells/mi. The cell suspension was put into wells of a 96-well microtiter plate in an amount of 0.1 ml per well. The cells in the plate were cultured at 37° C. for 20 hours in a CO2 -incubator. Subsequently, the test compound obtained in Example 1 which was appropriately diluted with medium A was added to the wells in an amount of 0.1 ml/well. The cells were further cultured at 37° C. for 72 hours in the CO2 -incubator, and then the culture supernatant was removed. To the residue was added a medium comprising medium A and 0.02% Neutral Red in an amount of 0.1 ml per well, followed by culturing at 37° C. for one hour in the CO2 -incubator, whereby the cells were stained. After removal of the culture supernatant, the residue was washed once with physiological saline. The pigment was extracted with 0.001N hydrochloric acid/30% ethanol, and the absorbance at 550 nm was measured by using a microplate reader. The concentration of the test compound at which the growth of the cells is inhibited by 50% (IC50) was calculated by comparing the absorbance of untreated cells with those of the cells treated with the test compound at known concentrations.

Solubility = format: physicochemical

SMILES | MIC [1] | MIC [2] | MIC [3] | IC50 [4] | Solubility (Solubility; chloroform) | Solubility (Solubility; dimethylsulfoxide (DMSO)) | Solubility (Solubility; methanol) | Solubility (Solubility; water)
CCC(C)c1c(OC2CC(O)C(O)C(C)O2)cc2cc3c(c(O)c2c1O)C(=O)C(OC1CC(OC2CC(OC4CC(OC5CC(OC)C(O)C(C)O5)C(O)C(C)O4)C(O)C(C)O2)C(O)C(C)O1)C(C(OC)C(=O)C(O)C(C)O)C3 (centres unmarked) [UCH9] | 0.04 µg/mL (≈ 0.0355 µM) | 41.6 µg/mL (≈ 36.9 µM) | 5.2 µg/mL (≈ 4.61 µM) | 0.015 µg/mL (≈ 0.0133 µM) | – | – | – | –
CCC(C)c1c(OC2CC(O)C(O)C(C)O2)cc2cc3c(c(O)c2c1O)C(=O)C(OC1CC(OC2CC(OC4CC(OC5CC(OC)C(O)C(C)O5)C(O)C(C)O4)C(O)C(C)O2)C(O)C(C)O1)C(C(OC)C(=O)C(O)C(C)O)C3 (centres unmarked) [UCH9·1/2 magnesium salt] | – | – | – | – | sparingly soluble | Soluble | Soluble | sparingly soluble
